In US20260152751A1, “INTERFERING RNA FOR INHIBITING JAK1 GENE EXPRESSION AND USE THEREOF” (Jenkem Technology Co., Ltd. (BEIJING), priority 2024, published 2026):
[Ψ] = pseudouridine; d = 2'-deoxy (DNA); r = 2'-OH (RNA)

What was measured:
JAK1 gene [1] = assay: qPCR of JAK1 expression in HaCaT cells transfected with modified siJAK1; format: cell-based, human; settings: siRNA 50 nM, 48 h after transfection, JAK1 by qPCR, siNC = 100.00
Method: (§1) One day prior to transfection, 293T cells were seeded into a 24-well cell culture plate at 1×10^5 cells/well, and the culture medium was 500 μL of DMEM containing 10% FBS and 1% penicillin-streptomycin. Three replicate wells were made for each group. The culture plate was placed in an incubator with 5% CO2 at 37° C. for 24 h to allow the cells to adhere to the wall. On the day of transfection, the culture medium was changed to 450 μL of DMEM culture medium without antibiotics (containing 10% FBS). The siRNAs were diluted with 25 μL of Opti-MEM culture medium, and the control group was siNC at the same concentration; a Lipofectamine™RNAiMAX transfection reagent (Lip) was diluted with another 25 μL of Opti-MEM culture medium, and the mixture was left to stand at room temperature for 5 min; and the two dilutions were uniformly mixed and left to stand at room temperature for 5 min. 50 μL of the mixed solution described above was added to each well to obtain a final transfection volume of 500 μL, and the working concentration of the siRNA was 50 nM. After the cells were further cultured in an incubator with 5% CO2 at 37° C. for 48 h, the total RNA of the cells was extracted.
(§2) 1) The RNA was reverse-transcribed into a cDNA template using the All-in-One First-Strand Synthesis MasterMix (LABLEAD, Cat. No.: F0202) kit. The reaction system was established according to Table 2, where all components were mixed uniformly and centrifuged to collect the liquid at the bottom of a tube, and the PCR program was run according to the settings of 37° C. for 2 min, 55° C. for 15 min, and 85° C. for 5 min, thereby giving the cDNA template.
(§3) 2) The gene expression level was detected using the Taq SYBR® Green qPCR Premix (LABLEAD, Cat. No.: R0202) kit, and the qPCR system was established according to Table 3. All components were mixed uniformly and centrifuged to collect the liquid at the bottom of a tube, and the PCR program was run according to the following settings: • Step1: 95° C. 30 s; • Step2: 95° C. 10 s; • Step3: 60° C. 30 s+Plate Read; • Step4: Go to Step2, 40 times; • Step5: Melt Curve 65 to 95° C., increment 0.5° C., for 5 s+Plate Read.
(§4) GAPDH was used as an endogenous reference to detect the relative expression level of JAK1 gene, and the sequences of the primers used are as follows: […]
According to the method described in Example 2, human keratinocyte HaCaT cells were transfected with the modified siJAK1 at an siRNA working concentration of 50 nM. The expression level of JAK1 was detected by qPCR 48 h after the transfection. The controls included siNC and unmodified siJAK1 at the same concentration.

JAK1 gene [2] = assay: siRNA screening: qPCR of JAK1 relative expression in transfected 293T cells; format: cell-based, human; settings: siRNA 50 nM, 48 h after transfection, GAPDH reference, siNC = 100.00
Method: as §1
RNA was extracted using Eastep™ Super total RNA extraction kit, with the detailed procedures as follows:
1) 300 μL of RNA lysis solution and 300 μL of RNA diluent were added into each well of the 24-well cell culture plate, and the mixture was uniformly mixed and subsequently transferred to a 1.5 mL centrifuge tube. The mixture was centrifuged at 14000 g for 10 min, and the supernatant was carefully pipetted into a new 1.5 mL centrifuge tube.
2) A 0.5-fold volume of absolute ethanol was added, and the mixture was uniformly mixed by allowing the tube to be repeatedly upside down 15-20 times. Subsequently, the mixture was transferred to a centrifuge column and centrifuged at 12000 g for 1 min. The filtrate was discarded.
3) 600 μL of RNA wash buffer was added, and the mixture was centrifuged at 12000 g for 1 min. The filtrate was discarded.
4) 50 μL of DNase I incubation buffer was added, followed by DNA digestion at room temperature for 15 min.
5) 600 μL of RNA wash buffer was added, the mixture was centrifuged at 12000 g for 1 min, and the filtrate was discarded. This procedure was repeated once. Subsequently, the mixture was centrifuged at 14000 g for 2 min to remove the residual RNA wash buffer, and then the centrifuge column was placed in a collection tube.
6) A proper amount of RNase-free H2O was added, and the mixture was left to stand for 15 min at room temperature, followed by centrifugation at 14000 g for 1 min. The RNA quality and concentration were detected using NanoDrop™. The extracted RNA was incubated at 70° C. for 5 min and immediately placed in an ice bath for 5 min for later use.
as §2, §3, §4

Substance | Relative expression level, Mean value (Mean) (JAK1 gene [1]) | Relative expression level of JAK1, Mean value (Mean) (JAK1 gene [2])
siNC: non-targeting control sequence; sense strand SEQ ID NO: 43, antisense strand SEQ ID NO: 44 (sense UUCUCCGAACGUGUCACGUTT; antisense ACGUGACACGUUCGGAGAATT; Bought control siRNA with 3' TT overhangs, chemistry not given here, further chemistry not given here) [reference compound] | 100.00 | 100.00
siJAK1-4359: siRNA targeting JAK1; sense strand SEQ ID NO: 23, antisense strand SEQ ID NO: 37 (sense CACAUUAAUCAUAGAUAAAGA; antisense UUUAUCUAUGAUUAAUGUGCC; listed as RNA, chemistry not fully specified) | – | 31.11
siJAK1-3283: siRNA targeting JAK1; sense strand SEQ ID NO: 20 dTdT, antisense strand SEQ ID NO: 34 dTdT (sense AGAACAUUGUGAAGUACAA; antisense UUGUACUUCACAAUGUUCU; listed as RNA, chemistry not fully specified) | 14.73 | 16.41
siJAK1-4627: siRNA targeting JAK1; sense strand SEQ ID NO: 26 dTdT, antisense strand SEQ ID NO: 40 dTdT (sense GCAUGUUAAUUCUCAAGAA; antisense UUCUUGAGAAUUAACAUGC; listed as RNA, chemistry not fully specified) | – | 38.64
siJAK1-3283-m10: pseudouridine-modified siJAK1-3283; sense strand SEQ ID NO: 50, antisense strand SEQ ID NO: 54 (sense AGAACAUUGUGAAGUACAATT; antisense UUGUACUUCACAAUGUUCUTT; sense: sugars from the 5' end r19 d2, [Ψ] at 7, 8, 10, 15, backbone not given here; antisense: sugars from the 5' end r19 d2, [Ψ] at 1, 2, 4, 7, 8, 14, 16, 17, 19, backbone not given here) | 15.89 | –
siJAK1-4410: siRNA targeting JAK1; sense strand SEQ ID NO: 25 dTdT, antisense strand SEQ ID NO: 39 dTdT (sense CAGUAUCUAUACAGUACUA; antisense UAGUACUGUAUAGAUACUG; listed as RNA, chemistry not fully specified) | – | 24.41
siJAK1-1131: siRNA targeting JAK1; sense strand SEQ ID NO: 17, antisense strand SEQ ID NO: 31 (sense GCGAUAUAUUCCAGAAACAUU; antisense UGUUUCUGGAAUAUAUCGCUU; listed as RNA, chemistry not fully specified) | – | 23.55
siJAK1-2200: siRNA targeting JAK1; sense strand SEQ ID NO: 18 dTdT, antisense strand SEQ ID NO: 32 dTdT (sense GUUUCGAUCGGAUCCUCAA; antisense UUGAGGAUCCGAUCGAAAC; listed as RNA, chemistry not fully specified) | – | 34.77
siJAK1-474: siRNA targeting JAK1; sense strand SEQ ID NO: 15 dTdT, antisense strand SEQ ID NO: 29 dTdT (sense GAAUAAAUGCAGUAUCUAA; antisense UUAGAUACUGCAUUUAUUC; listed as RNA, chemistry not fully specified) | – | 20.24
siJAK1-826-m4: pseudouridine-modified siJAK1-826; sense strand SEQ ID NO: 49, antisense strand SEQ ID NO: 53 (sense GGCAUGGAACCAACGACAAUU; antisense UUGUCGUUGGUUCCAUGCCTT; sense: sugars from the 5' end r19 d2, [Ψ] at 5, backbone and T or U not given here; antisense: sugars from the 5' end r19 d2, [Ψ] at 1, 2, 4, 7, 8, 11, 12, 16, backbone not given here) | 13.55 | –
siJAK1-5034: siRNA targeting JAK1; sense strand SEQ ID NO: 28, antisense strand SEQ ID NO: 42 (sense GAACGAUUACGGUCUUUAUGA; antisense AUAAAGACCGUAAUCGUUCAC; listed as RNA, chemistry not fully specified) | – | 35.89
siJAK1-4096: siRNA targeting JAK1; sense strand SEQ ID NO: 22 dTdT, antisense strand SEQ ID NO: 36 dTdT (sense GGCACACUGUAGUGCUUAA; antisense UUAAGCACUACAGUGUGCC; listed as RNA, chemistry not fully specified) | – | 38.56
siJAK1-2714: siRNA targeting JAK1; sense strand SEQ ID NO: 19 dTdT, antisense strand SEQ ID NO: 33 dTdT (sense GGUGCUGUCUAGGCAAGAA; antisense UUCUUGCCUAGACAGCACC; listed as RNA, chemistry not fully specified) | – | 19.12
siJAK1-3630: siRNA targeting JAK1; sense strand SEQ ID NO: 21 dTdT, antisense strand SEQ ID NO: 35 dTdT (sense GAAUGUUUAAUGCAAUCUA; antisense UAGAUUGCAUUAAACAUUC; listed as RNA, chemistry not fully specified) | – | 25.58
siJAK1-5026: siRNA targeting JAK1; sense strand SEQ ID NO: 27 dTdT, antisense strand SEQ ID NO: 41 dTdT (sense GAUUCAAUGUGAACGAUUA; antisense UAAUCGUUCACAUUGAAUC; listed as RNA, chemistry not fully specified) | – | 32.40
siJAK1-826: siRNA targeting JAK1; sense strand SEQ ID NO: 16 dTdT, antisense strand SEQ ID NO: 30 dTdT (sense GGCAUGGAACCAACGACAA; antisense UUGUCGUUGGUUCCAUGCC; listed as RNA, chemistry not fully specified) | 13.33 | 14.18
siJAK1-4389: siRNA targeting JAK1; sense strand SEQ ID NO: 24, antisense strand SEQ ID NO: 38 (sense GGACUUAGCCCUCAAAUUUCA; antisense AAAUUUGAGGGCUAAGUCCAU; listed as RNA, chemistry not fully specified) | – | 27.56
